Read-outs that look alike come from different tables or passages of the source.
Tests used:
female NMRI-nu mice = experiment: In vivo toxicity and tolerability in mice; details: for abnormalities / toxic effects in liver and other organs at autopsy: daily i.p., toxic effects at 20 mg/kg WBC-15C and at 20 and 10 mg/kg WBC-11C, not at lower doses; for loss in body weight: daily intraperitoneal injection, 5, 10 and 20 mg/kg; for AST/ALT ratio vs vehicle: sera after 20 days, 5, 10, 20 mg/kg daily i.p.; for blood glucose level vs vehicle: sera post-mortem after 20 days, 5, 10, 20 mg/kg daily i.p.
Method: Warbicin ® in vivo toxicity and tolerability was examined by subjecting female NMRI-nu mice (12 weeks old) to daily intraperitoneal injection of either WBC-A, WBC-15C, WBC-4C or WBC-11C. Compounds were dosed at either 5 mg/kg, 10 mg/kg or 20 mg/kg over a period of 20 days. Three mice were used per condition. To evaluate toxicity, change in body weight was registered daily. As a humane endpoint, mice that lost more than 20% of their original body weight were prematurely sacrificed. In addition, liver function was examined by measuring the ratio of the AST to ALT enzyme activities (AbCam ab105135, ab105134) in sera samples collected at the end of the experiment. Furthermore, the blood glucose level in mice sera was determined using the colorimetric GOD-PAP method. Due to their considerable hydrophobicity, the compounds were dissolved in a sterilized 1xPBS, 5% DMSO and 5% Tween-80 solution until a homogenous suspension was obtained that could be administered in a reproducible way.

[1] = tested on: 2-deoxyglucose uptake in A549 lung adenocarcinoma cells; experiment: 2-deoxyglucose uptake in A549 lung adenocarcinoma cells; format: cell-based, human
Method: Zero-trans glucose uptake in A549 cells was approximated by measuring the uptake of [1,2-^3H]2-deoxyglucose. For this purpose, A549 cells were pregrown in RPMI medium containing 10 mM glucose in a 24-well plate to a cell density of around 100,000 cells/well. Prior to adding radioactive label, cells were gently washed twice in Krebs-Ringer-HEPES buffer (50 mM HEPES pH 7.4, 137 mM NaCl, 4.7 mM KCl, […], 1.3 mM MgSO4 and 0.1% w/v BSA) at 30°C to remove any residual sugar. RPMI medium without sugar containing the compound intended for treatment, was added to the cells for 15 min at 37°C to allow adequate interaction of the cells with the compound. The uptake measurement was initiated by adding an equal volume of medium containing radiolabeled 2DG. After 3 - 4 min incubation at 37°C, medium was aspirated and cells were gently washed three times with ice-cold Krebs-Ringer-HEPES buffer. Cells were lysed by adding 200 µL of ice-cold 0.1 M NaOH solution and incubating the plate for 10 min at 37°C. Cell lysates were transferred to scintillation vials for subsequent scintillation counting. For blank measurements, cells were incubated with 50 µM Cytochalasin B prior to the uptake measurement.

[2] = tested on: A549 lung adenocarcinoma cells; experiment: Proliferation of A549 lung adenocarcinoma cells; format: cell-based, human; details: for relative potency in reducing maximal growth rate of A549 cells: 1 mM glucose, 6.25-50 µM
Method: For both adherent A549 and MCF10A H-RAS^V12 cell lines, growth curves were established using the IncuCyte® ZOOM technology. By collecting phase contrast images, the IncuCyte® software provides a calculated confluency percentage from which growth curves can be deducted. The cell number/density was measured by calculating the confluency of phase objects (cells) sticking on the bottom of the well. Cells were seeded at a density of 1000 - 1500 cells/well in a Nunc-Edge™ 96-well plate (Thermo Fisher Scientific) and growth was typically measured over 3 to 5 days. For the measurement of apoptosis induction using the MCF10A H-RAS^V12 cell line, the IncuCyte® Caspase-3/7 green dye was added to the medium in the recommended concentration at the beginning of the growth curve experiment. Apoptosis was detected by taking fluorescent images by excitation at 488 nm followed by IncuCyte® software analysis. Cell growth of the KMS-12-PE multiple myeloma cell line, which grows in suspension, was measured by manual cell counting. Cells were initially seeded at a density of 10^4 cells/well and incubated for 4 days after which the cell number was counted. For all cell lines, the same medium used for pregrowth was also used for the growth curve experiment, albeit with different glucose concentrations depending on the experimental design. With compound administration, the final concentration of DMSO never exceeded 0.1%. Typically, at least four technical repeats were included per condition.

[3] = tested on: A549 lung adenocarcinoma cells; experiment: Glucose consumption and lactate production over 8 h, A549; format: cell-based, human; details: A549, 25 µM, 1 mM glucose
Method: The influence of WBC compounds on glucose consumption over a longer time period was studied in the A549 adenocarcinoma and KMS-12-PE multiple myeloma cell lines. As such, different parameters needed to be optimized depending on whether cells were adherent or in suspension. As such, A549 cells were incubated at 125,000 cells/well in a 24-well plate in 300 µL RPMI medium for 8 h. For the KMS-12-PE cell line, 100,000 cells/well were incubated in 100 µL RPMI medium in a 96-well plate for 8 h. Medium was collected, spun down and HPLC-analyzed for measuring glucose and lactate levels. Metabolite levels were corrected for cell number, which always varied little over the span of 8 h. For every condition, at least 4 technical repeats were included.

[4] = tested on: glucose uptake by tps1Δ yeast cells; experiment: Zero-trans uptake of radioactive glucose in tps1Δ yeast cells; format: cell-based, S. cerevisiae; details: for IC50: Saccharomyces cerevisiae
Method: Zero-trans uptake of radioactively labeled [U-^14C]glucose, [U-^14C]fructose or [U-^14C]galactose by S. cerevisiae cells was determined in accordance with previous studies ([45], [75]). Cells were grown on different carbon sources depending on the experiment. For measuring glucose uptake activity in the tps1Δ and tps1Δ hxtΔ strains, cells were grown on YP medium containing 325 mM glycerol (measurement of 10 s). Typically, for compound characterization and kinetic studies in wild type and tps1Δ strains, cells were (pre)grown on Complete Synthetic medium supplemented with 110 mM galactose (measurement of 10 s). In the experiments on the influence of hexokinase activity on the sugar uptake rate, the measurement duration was shortened to 5 s and cells were always grown on YP medium containing 325 mM glycerol and 430 mM ethanol. After harvesting, cells were washed twice with ice-cold 25 mM MES-buffer pH 6, and resuspended in their respective medium without sugar to a final concentration of 45 mg (wet weight)/mL. The amount of added tracer was estimated to give a response close to at least 1000 counts per min in order to adequately counter background noise. Cells were first preincubated for 10 min at 30°C with the compound to acclimate the cells to the temperature and to allow adequate interaction with the compound prior to uptake. Next, hexose sugar was mixed with the cell suspension, which was then incubated at 30°C for 5 or 10 s, depending on the experiment, after which the cells were rapidly filtered over a glass microfiber filter (Whatman GF/C) and washed three times with ice-cold dH2O. The loaded filter was transferred to a scintillation vial containing 3 mL liquid scintillation cocktail (Ultima-Flo M, Perkin Elmer) and counted using the Hidex 300 SL. Three blank measurements per strain were typically included to account for background signal, for which the cells were first quenched before adding the radioactive label.

| Compound | abnormalities / toxic effects in liver and other organs at autopsy (female NMRI-nu mice; 20 days) | adipose tissue at autopsy (female NMRI-nu mice; nude mice, daily i.p., 5, 10 and 20 mg/kg, 20 days, visual inspection vs vehicle) | loss in body weight (female NMRI-nu mice; nude mice, 20 days) | AST/ALT ratio vs vehicle (female NMRI-nu mice) | blood glucose level vs vehicle (female NMRI-nu mice) | type of inhibition of 2-deoxyglucose uptake (Lineweaver-Burk) [1] | Selected from primary screen for growth inhibition of A549 cells at 50 µM ([2]; RPMI 1 mM glucose) | relative potency in reducing maximal growth rate of A549 cells [2] | Selected for having an IC50 ratio (10 mM glucose : 1 mM glucose) of A549 growth higher than WBC-A ([2]; ratio of IC50 on 10 mM and 1 mM glucose, compared to WBC-A) | inhibition of glucose consumption and lactate production [3] | IC50 ([4]; read-out: IC50 values for 2.5 mM glucose uptake in tps1∆ cells) | K'i for 2-deoxyglucose uptake ([1]; Dixon plot (Ki = K'i) or Cornish-Bowden plot (WBC-11C)) | Ki ([1]; read-out: Ki for 2-deoxyglucose uptake (Dixon plot)) | inhibition of A549 growth ([2]; RPMI 1 mM glucose, 12.5 µM) | inhibition of A549 growth ([2]; RPMI 1 mM glucose, concentrations higher than 12.5 µM (25, 50 µM)) | inhibition of A549 growth ([2]; RPMI 1 mM or 5 mM glucose, 12.5-50 µM, more pronounced for 1 mM) | IC50 ([4]; read-out: IC50 for inhibition of 2.5 mM glucose uptake) | type of inhibition of glucose uptake ([4]; tps1Δ yeast cells) | Ki ([4]; tps1Δ yeast cells, read-out: Ki (Dixon plot) for glucose uptake) |
| --- | --- | --- | --- | --- | --- | --- | --- | --- | --- | --- | --- | --- | --- | --- | --- | --- | --- | --- | --- |
| Cc1nc(SCC(=O)c2ccc3c(c2)NC(=O)CO3)c2c(-c3cccs3)csc2n1 [WBC-11C] | toxic effects were seen in the liver and other organs | adipose tissue was also observed in between the intestines | small transient drop | No significant difference | No significant difference | uncompetitive | Yes | most | Higher IC50 ratio and confirmed | inhibited glucose consumption and lactate production | 44 µM |  |  |  |  |  |  |  |  |
| Cc1nc(Sc2nnc3n2CCCCC3)c2c(-c3cccs3)csc2n1 [WBC-A] | No other abnormalities |  | no significant loss in body weight | No significant difference | No significant difference | noncompetitive type of inhibition | Yes | intermediate potency |  | did not cause inhibition |  | 52.78 µM | 52.8 µM | pronounced inhibition | completely blocked continued cancer cell proliferation | dose-dependent inhibition of growth | 20.8 µM | mixed type of inhibition | 8.35 µM |

Source: article PMC11374660, “The novel family of Warbicin® compounds inhibits glucose uptake both in yeast and human cells and restrains cancer cell proliferation” (Frontiers in Oncology, 2024)
